Each structure is given as a SMILES string. The source made the active and inactive calls.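 The calls were made as follows: active = IC50 at or below about 50119 nM, measured in restricted growth medium; inactive = the rest.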

The text below walks through data of PubChem BioAssay AID2060596 (Global Health Medicines R&D, GSK, 2025).

The test system of the assay is HepG2 viability, ATP luminescence, 48 h. In words: HepG2 cell cytotoxicity, dose response, cytotoxicity control (AID 2060596).

As for `NC(=O)CC1CCN(C(=O)c2sc3sccc3c2Cl)CC1`, the IC50 was > 100 µM (inactive).

For the compound `Cc1nn(C2CCS(=O)(=O)C2)c(C)c1CN(C)C(=O)CN1C(=O)NC2(CCCCC2C)C1=O` (stereo not drawn), the IC50 was 79.4 µM.

Turning to `Cc1cc(Cl)ccc1OCC(=O)N1CCc2c(cnc(C)c2CNC(=O)c2ccc(=O)[nH]n2)C1`, the IC50 is > 100 µM (inactive).

For `Cc1cc(-c2cnc(N3CCn4c(nnc4C4CC4)C3)nc2-c2ccncc2)on1`, the IC50 was > 100 µM (inactive).

As for `COc1ccc(C(=O)N2CCN(c3ccc(-n4cccn4)nn3)CC2)cc1OC`, the IC50 is > 100 µM (inactive).

With `O=C1CSc2ccc(C(=O)Nc3ccc(-c4nnc5n4CCCCC5)cc3)cc2N1`, the IC50 was > 100 µM (inactive).

Regarding `O=C(CCCc1ncc(-c2ccccc2)o1)N1CCOC2CCCC21` (stereo not drawn), the IC50 was > 100 µM (inactive).

For the compound `Cc1cccc(-c2nn(Cc3ccc(C(=O)NCCCO)cc3)c(=O)cc2N2CCCC(CO)C2)c1` (stereo not drawn), the IC50 was > 100 µM (inactive).

On to `COc1ccc(NC(=O)c2ccc3c(=O)n(Cc4ccccn4)cnc3c2)cc1N1CCN(C)CC1`, for which the IC50 was > 100 µM (inactive).

Regarding `O=C(CCCc1c[nH]c2ccccc12)N1CCN(c2ccc(N3CCOCC3)nn2)CC1`, the IC50 is > 100 µM (inactive).

Regarding `N#Cc1cccc(NC(=O)CNc2ccccc2C(=O)NC2CC2)c1`, the IC50 is > 100 µM (inactive).

Consider `O=C(CCN=C1NS(=O)(=O)c2ccccc21)Nc1ccc(S(=O)(=O)N2CCCC2)cc1`, for which the IC50 was > 100 µM (inactive).

In the case of `COc1ccc(-c2ccc(CNC(=O)c3cc(C(=O)NC(C)C)ccc3Cl)cc2)cn1`, the IC50 is > 100 µM (inactive).

Turning to `CCN(C(=O)C=Cc1ccc(S(=O)(=O)N2CCc3ccccc32)cc1)C1CCS(=O)(=O)C1` (stereo not drawn), the IC50 was > 100 µM (inactive).

For the compound `CC(C)Oc1ccc(-c2nnc(Oc3cccc4c3CCN(CCC(N)=O)CC4)s2)cc1C#N`, the IC50 is 20 µM.

As to `O=C(c1cc2ccccc2[nH]1)N1CCC2(CC(Nc3ccncn3)C2)C1` (stereo not drawn), the IC50 is 63.1 µM.

For the compound `N#Cc1c(N)n[nH]c1CCCNC(=O)c1ccc(Cl)c(S(=O)(=O)N2CCCC2)c1`, the IC50 is > 100 µM (inactive).

In the case of `COc1ccc2oc(C(=O)NC3CCC(Oc4ncccn4)CC3)cc2c1` (stereo not drawn), the IC50 was > 100 µM (inactive).

On to `O=C(CCn1nnc2cc(S(=O)(=O)N3CCCC3)ccc21)N1CCN(c2ccccn2)CC1`, for which the IC50 was > 100 µM (inactive).

With `CN(C(=O)C[C@@H]1CCN(C(=O)C2CC2)C1)c1ccc(-c2ccc(C#N)cc2)cc1`, the IC50 was > 100 µM (inactive).

For `COc1ccc(N2CCN(C(=O)c3csc(Nc4ccccc4S(C)(=O)=O)n3)CC2)nc1`, the IC50 was > 100 µM (inactive).

Take `Cn1cccc1C1CCCN1CC(=O)Nc1ccc(S(=O)(=O)N2CCOCC2)cc1` (stereo not drawn): the IC50 was > 100 µM (inactive).

In the case of `O=C(Nc1cccnc1)C1CCN(c2ccc(-c3ccco3)nn2)CC1`, the IC50 is > 100 µM (inactive).

Take `O=C(NCCCN1CCc2ccccc21)c1ccc2c(=O)n(Cc3ccccn3)cnc2c1`: the IC50 was > 100 µM (inactive).

With `O=C(COc1ccc(Br)cc1F)N1CCN(c2cnccn2)CC1`, the IC50 was > 100 µM (inactive).

In the case of `Cc1ccc2nc(CCNC(=O)CCS(=O)(=O)c3ccc4c(c3)CC(=O)N4C)[nH]c2c1`, the IC50 was > 100 µM (inactive).

For the compound `O=C(Nc1ccc(N2CCCC2)nc1)N1CCN(c2cnccn2)CC1`, the IC50 is > 100 µM (inactive).

For the compound `O=C1CCCN1c1ccc(S(=O)(=O)N2CCN(S(=O)(=O)c3ccccc3)CC2)cc1`, the IC50 was > 100 µM (inactive).

In the case of `O=C(/C=C/c1n[nH]c2ccccc12)Nc1ccc(C(=O)NCCN2CCOCC2)cc1`, the IC50 is > 100 µM (inactive).

Consider `CCCOc1cncc(S(=O)(=O)c2ccc3c(c2)CCN(C2CCC2)CC3)c1`, for which the IC50 is 50.1 µM.

Regarding `CCN(CC)c1ccc(C(=O)COc2ccc3c(c2)CCNCC3)cc1`, the IC50 is 31.6 µM.

As to `O=C(Nc1nnc(-c2ccccc2)s1)N1CCCN(c2ncccn2)CC1`, the IC50 is > 100 µM (inactive).

Turning to `O=C(/C=C/c1n[nH]c2ccccc12)N1CCN(c2cnccn2)CC1`, the IC50 is > 100 µM (inactive).
